Test results taken from the kinase profiling compilation of Christmann-Franck et al. (2016).

Assays:
Experiment in all cases: KINOMEscan competition binding
Conditions in all cases: compound 10.0 µM
AXL (human) = AXL (human) (UniProt P30530)
BLK (human) = BLK (human) (UniProt P51451)
CAMKK2 (human) = CAMKK2 (human) (UniProt Q96RR4)
CDK19 (human) = CDK19 (human) (UniProt Q9BWU1)
CDK3 (human) = CDK3 (human) (UniProt Q00526)
CDK5 (human) = CDK5 (human) (UniProt Q00535)
CDKL2 (human) = CDKL2 (human) (UniProt Q92772)
CSNK1E (human) = CSNK1E (human) (UniProt P49674)
DAPK1 (human) = DAPK1 (human) (UniProt P53355)
DDR1 (human) = DDR1 (human) (UniProt Q08345)
[1] = tested on: EGFR (human), P00533 [A750P; 747-749 del]
EPHB3 (human) = EPHB3 (human) (UniProt P54753)
FLT1 (human) = FLT1 (human) (UniProt P17948)
[2] = tested on: FLT3 (human), P36888 [D835Y]
INSR (human) = INSR (human) (UniProt P06213)
KDR (human) = KDR (human) (UniProt P35968)
KIT (human) = KIT (human) (UniProt P10721)
[3] = tested on: KIT (human), P10721 [A829P]
LIMK2 (human) = LIMK2 (human) (UniProt P53671)
MAPK3 (human) = MAPK3 (human) (UniProt P27361)
MTOR (human) = MTOR (human) (UniProt P42345)
MYO3A (human) = MYO3A (human) (UniProt Q8NEV4)
NTRK3 (human) = NTRK3 (human) (UniProt Q16288)
PIK3CG (human) = PIK3CG (human) (UniProt P48736)
PIP4K2C (human) = PIP4K2C (human) (UniProt Q8TBX8)
PRKD1 (human) = PRKD1 (human) (UniProt Q15139)
PTK6 (human) = PTK6 (human) (UniProt Q13882)
RAF1 (human) = RAF1 (human) (UniProt P04049)
ROS1 (human) = ROS1 (human) (UniProt P08922)
RPS6KA1 KD1 (human) = RPS6KA1 KD1 (human) (UniProt Q15418)
SNRK (human) = SNRK (human) (UniProt Q9NRH2)
SRPK3 (human) = SRPK3 (human) (UniProt Q9UPE1)
STK17A (human) = STK17A (human) (UniProt Q9UEE5)
STK24 (human) = STK24 (human) (UniProt Q9Y6E0)
STK38 (human) = STK38 (human) (UniProt Q15208)
TAOK3 (human) = TAOK3 (human) (UniProt Q9H2K8)
TNIK (human) = TNIK (human) (UniProt Q9UKE5)
TSSK1B (human) = TSSK1B (human) (UniProt Q9BXA7)
ULK1 (human) = ULK1 (human) (UniProt O75385)
YES1 (human) = YES1 (human) (UniProt P07947)

Sequence of KDR (human) (P35968 whole entry, looked up): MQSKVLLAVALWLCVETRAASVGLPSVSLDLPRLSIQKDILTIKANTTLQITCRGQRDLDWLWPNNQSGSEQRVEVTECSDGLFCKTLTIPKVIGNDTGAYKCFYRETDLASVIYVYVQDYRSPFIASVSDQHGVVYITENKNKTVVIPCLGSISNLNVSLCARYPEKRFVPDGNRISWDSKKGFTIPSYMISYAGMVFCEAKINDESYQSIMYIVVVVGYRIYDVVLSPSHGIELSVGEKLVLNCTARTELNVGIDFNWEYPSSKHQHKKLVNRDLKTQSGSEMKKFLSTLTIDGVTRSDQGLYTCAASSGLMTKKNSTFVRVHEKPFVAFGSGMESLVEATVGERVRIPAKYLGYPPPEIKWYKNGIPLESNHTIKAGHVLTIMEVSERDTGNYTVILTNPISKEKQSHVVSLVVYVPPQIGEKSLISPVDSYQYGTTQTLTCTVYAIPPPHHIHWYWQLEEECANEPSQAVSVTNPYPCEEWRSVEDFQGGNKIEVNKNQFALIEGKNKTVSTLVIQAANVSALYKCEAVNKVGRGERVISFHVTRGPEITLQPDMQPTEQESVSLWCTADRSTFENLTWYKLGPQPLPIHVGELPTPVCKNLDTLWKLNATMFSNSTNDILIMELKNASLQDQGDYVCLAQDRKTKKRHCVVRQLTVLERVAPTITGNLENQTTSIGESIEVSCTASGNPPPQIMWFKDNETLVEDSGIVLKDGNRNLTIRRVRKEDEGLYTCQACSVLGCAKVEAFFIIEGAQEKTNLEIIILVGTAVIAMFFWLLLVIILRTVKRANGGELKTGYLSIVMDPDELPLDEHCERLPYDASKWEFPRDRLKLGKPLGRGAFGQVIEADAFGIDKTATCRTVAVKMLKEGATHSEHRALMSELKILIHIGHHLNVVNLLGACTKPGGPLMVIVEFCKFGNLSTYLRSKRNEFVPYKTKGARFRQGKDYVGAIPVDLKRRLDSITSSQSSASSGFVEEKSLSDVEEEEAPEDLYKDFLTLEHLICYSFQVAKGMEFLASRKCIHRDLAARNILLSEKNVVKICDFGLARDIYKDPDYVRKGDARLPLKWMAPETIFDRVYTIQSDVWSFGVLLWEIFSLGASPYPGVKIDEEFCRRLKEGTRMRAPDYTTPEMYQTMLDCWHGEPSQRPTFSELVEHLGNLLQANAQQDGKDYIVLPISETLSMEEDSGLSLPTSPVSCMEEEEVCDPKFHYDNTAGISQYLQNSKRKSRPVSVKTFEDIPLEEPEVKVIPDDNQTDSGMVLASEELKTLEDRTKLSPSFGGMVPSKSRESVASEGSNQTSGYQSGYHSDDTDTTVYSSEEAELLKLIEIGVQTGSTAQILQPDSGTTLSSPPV
Sequence of RPS6KA1 KD1 (human) (Q15418 whole entry, looked up): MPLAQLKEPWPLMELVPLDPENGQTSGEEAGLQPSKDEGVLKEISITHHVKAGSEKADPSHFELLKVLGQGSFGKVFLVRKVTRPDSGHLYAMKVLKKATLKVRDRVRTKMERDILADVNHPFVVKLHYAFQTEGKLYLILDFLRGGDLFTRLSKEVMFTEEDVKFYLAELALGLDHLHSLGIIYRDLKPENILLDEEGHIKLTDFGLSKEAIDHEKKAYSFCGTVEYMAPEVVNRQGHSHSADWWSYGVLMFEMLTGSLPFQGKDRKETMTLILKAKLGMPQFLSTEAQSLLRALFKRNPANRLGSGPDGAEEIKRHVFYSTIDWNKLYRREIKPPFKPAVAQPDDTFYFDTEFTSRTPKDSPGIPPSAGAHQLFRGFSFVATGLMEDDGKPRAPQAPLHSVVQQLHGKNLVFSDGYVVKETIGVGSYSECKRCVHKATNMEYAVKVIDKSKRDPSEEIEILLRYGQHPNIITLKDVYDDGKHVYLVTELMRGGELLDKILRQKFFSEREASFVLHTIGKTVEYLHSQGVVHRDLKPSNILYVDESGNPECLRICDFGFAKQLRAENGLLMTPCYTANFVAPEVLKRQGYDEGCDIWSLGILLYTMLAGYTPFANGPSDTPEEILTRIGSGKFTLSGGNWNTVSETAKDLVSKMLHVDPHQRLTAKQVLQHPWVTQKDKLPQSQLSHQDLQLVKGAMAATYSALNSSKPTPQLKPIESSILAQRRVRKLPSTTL
Sequence of DDR1 (human) (Q08345 whole entry, looked up): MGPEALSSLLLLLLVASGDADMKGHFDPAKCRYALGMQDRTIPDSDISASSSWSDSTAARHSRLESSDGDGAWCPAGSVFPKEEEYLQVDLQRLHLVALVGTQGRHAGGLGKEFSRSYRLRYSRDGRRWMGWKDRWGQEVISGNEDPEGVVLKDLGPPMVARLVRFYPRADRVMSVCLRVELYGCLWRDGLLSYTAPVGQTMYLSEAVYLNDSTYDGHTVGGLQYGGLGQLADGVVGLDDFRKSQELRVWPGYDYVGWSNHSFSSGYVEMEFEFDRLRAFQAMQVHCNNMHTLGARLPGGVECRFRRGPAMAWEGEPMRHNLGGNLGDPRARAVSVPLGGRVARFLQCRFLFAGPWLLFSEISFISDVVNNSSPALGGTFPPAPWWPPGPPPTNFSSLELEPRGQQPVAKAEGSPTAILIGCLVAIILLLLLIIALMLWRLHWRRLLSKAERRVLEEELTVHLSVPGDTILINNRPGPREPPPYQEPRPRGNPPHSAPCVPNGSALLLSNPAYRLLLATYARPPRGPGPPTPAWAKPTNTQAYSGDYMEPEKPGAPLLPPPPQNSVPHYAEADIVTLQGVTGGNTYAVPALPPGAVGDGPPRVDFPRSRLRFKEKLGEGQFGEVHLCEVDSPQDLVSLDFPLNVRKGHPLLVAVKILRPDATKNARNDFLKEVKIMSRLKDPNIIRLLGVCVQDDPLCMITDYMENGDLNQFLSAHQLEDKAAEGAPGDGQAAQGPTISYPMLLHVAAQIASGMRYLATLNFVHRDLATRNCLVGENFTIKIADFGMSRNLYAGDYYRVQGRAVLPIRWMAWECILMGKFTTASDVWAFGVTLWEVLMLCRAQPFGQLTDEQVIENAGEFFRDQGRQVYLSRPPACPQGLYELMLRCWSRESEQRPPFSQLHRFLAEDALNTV
Sequence of PIP4K2C (human) (Q8TBX8 whole entry, looked up): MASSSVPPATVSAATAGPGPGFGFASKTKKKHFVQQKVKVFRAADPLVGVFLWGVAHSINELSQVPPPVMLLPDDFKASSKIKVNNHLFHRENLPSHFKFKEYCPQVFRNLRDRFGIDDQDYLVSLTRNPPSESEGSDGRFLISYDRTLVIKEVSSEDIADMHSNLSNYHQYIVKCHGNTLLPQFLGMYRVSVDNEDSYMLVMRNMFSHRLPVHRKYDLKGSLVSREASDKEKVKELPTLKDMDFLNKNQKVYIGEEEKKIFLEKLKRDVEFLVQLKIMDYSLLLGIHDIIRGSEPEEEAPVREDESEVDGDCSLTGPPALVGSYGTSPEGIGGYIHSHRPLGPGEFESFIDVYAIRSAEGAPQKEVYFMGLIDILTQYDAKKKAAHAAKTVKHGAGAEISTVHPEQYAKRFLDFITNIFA
Sequence of CDK19 (human) (Q9BWU1 whole entry, looked up): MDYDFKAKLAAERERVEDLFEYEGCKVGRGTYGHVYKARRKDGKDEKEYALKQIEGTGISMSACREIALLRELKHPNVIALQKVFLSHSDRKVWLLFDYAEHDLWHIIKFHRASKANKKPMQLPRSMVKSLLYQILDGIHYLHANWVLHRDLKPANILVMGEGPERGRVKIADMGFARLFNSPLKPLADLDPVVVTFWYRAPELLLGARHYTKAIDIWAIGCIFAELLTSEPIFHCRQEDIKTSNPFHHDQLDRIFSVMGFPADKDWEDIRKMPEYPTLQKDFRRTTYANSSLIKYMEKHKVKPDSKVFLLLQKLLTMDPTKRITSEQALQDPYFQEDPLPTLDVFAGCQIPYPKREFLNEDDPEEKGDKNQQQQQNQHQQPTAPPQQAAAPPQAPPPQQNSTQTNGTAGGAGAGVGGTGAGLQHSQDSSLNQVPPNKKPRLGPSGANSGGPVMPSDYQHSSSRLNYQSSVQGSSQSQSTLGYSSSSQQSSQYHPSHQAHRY
Sequence of TSSK1B (human) (Q9BXA7 whole entry, looked up): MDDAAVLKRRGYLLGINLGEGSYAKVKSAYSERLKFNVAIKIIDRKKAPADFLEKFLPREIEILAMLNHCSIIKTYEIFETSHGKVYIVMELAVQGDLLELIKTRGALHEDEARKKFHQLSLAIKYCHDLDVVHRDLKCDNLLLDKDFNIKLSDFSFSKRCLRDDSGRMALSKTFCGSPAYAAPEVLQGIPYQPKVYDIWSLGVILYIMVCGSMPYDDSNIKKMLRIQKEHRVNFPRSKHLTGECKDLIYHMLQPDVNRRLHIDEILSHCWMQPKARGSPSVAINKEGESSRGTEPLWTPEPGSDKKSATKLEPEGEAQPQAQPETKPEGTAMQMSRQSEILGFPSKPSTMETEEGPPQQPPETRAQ
Sequence of BLK (human) (P51451 whole entry, looked up): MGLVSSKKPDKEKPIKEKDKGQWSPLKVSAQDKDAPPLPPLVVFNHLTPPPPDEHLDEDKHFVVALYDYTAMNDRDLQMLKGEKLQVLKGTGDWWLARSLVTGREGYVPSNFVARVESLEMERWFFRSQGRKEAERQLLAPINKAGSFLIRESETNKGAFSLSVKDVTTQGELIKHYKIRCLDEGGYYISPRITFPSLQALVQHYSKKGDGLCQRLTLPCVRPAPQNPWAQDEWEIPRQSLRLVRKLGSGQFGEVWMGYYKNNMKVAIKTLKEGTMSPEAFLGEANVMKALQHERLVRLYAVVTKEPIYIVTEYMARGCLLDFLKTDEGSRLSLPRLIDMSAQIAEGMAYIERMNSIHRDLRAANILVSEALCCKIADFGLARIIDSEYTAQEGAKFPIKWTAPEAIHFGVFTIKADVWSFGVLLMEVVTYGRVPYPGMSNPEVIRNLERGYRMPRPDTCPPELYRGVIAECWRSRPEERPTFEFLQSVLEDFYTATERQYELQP

Row | SMILES | kinase still bound, per cent of control (AXL (human)) [%] | kinase still bound, per cent of control (BLK (human)) [%] | kinase still bound, per cent of control (CAMKK2 (human)) [%] | kinase still bound, per cent of control (CDK19 (human)) [%] | kinase still bound, per cent of control (CDK3 (human)) [%] | kinase still bound, per cent of control (CDK5 (human)) [%] | kinase still bound, per cent of control (CDKL2 (human)) [%] | kinase still bound, per cent of control (CSNK1E (human)) [%] | kinase still bound, per cent of control (DAPK1 (human)) [%] | kinase still bound, per cent of control (DDR1 (human)) [%] | kinase still bound, per cent of control [1] [%] | kinase still bound, per cent of control (EPHB3 (human)) [%] | kinase still bound, per cent of control (FLT1 (human)) [%] | kinase still bound, per cent of control [2] [%] | kinase still bound, per cent of control (INSR (human)) [%] | kinase still bound, per cent of control (KDR (human)) [%] | kinase still bound, per cent of control (KIT (human)) [%] | kinase still bound, per cent of control [3] [%] | kinase still bound, per cent of control (LIMK2 (human)) [%] | kinase still bound, per cent of control (MAPK3 (human)) [%] | further results
1 | C=CC(=O)Nc1ccc(C(=O)c2sc(Nc3ccc(N4CCN(C)CC4)cc3OC)nc2N)cc1 | 100 | 100 | 5 | 100 | 88 | 86 | 86 | 66 | 9.4 | 100 | 61 | 76 | 97 | 23 | 98 | 100 | 78 | 63 | 100 | 100 | kinase still bound, per cent of control (MTOR (human)): 90%; kinase still bound, per cent of control (MYO3A (human)): 35%; kinase still bound, per cent of control (NTRK3 (human)): 93%; kinase still bound, per cent of control (PIK3CG (human)): 96%; kinase still bound, per cent of control (PIP4K2C (human)): 20%; kinase still bound, per cent of control (PRKD1 (human)): 39%; kinase still bound, per cent of control (PTK6 (human)): 80%; kinase still bound, per cent of control (RAF1 (human)): 97%; kinase still bound, per cent of control (ROS1 (human)): 38%; kinase still bound, per cent of control (RPS6KA1 KD1 (human)): 24%; kinase still bound, per cent of control (SNRK (human)): 0.2%; kinase still bound, per cent of control (SRPK3 (human)): 54%; kinase still bound, per cent of control (STK17A (human)): 100%; kinase still bound, per cent of control (STK24 (human)): 71%; kinase still bound, per cent of control (STK38 (human)): 67%; kinase still bound, per cent of control (TAOK3 (human)): 23%; kinase still bound, per cent of control (TNIK (human)): 6%; kinase still bound, per cent of control (TSSK1B (human)): 44%; kinase still bound, per cent of control (ULK1 (human)): 5.1%; kinase still bound, per cent of control (YES1 (human)): 86%
2 | N#Cc1cc(-c2ccnc(Nc3ccc(-n4cnc(-c5cccnc5)n4)cc3)n2)cc(N2CCOCC2)c1 | 28 | 86 | 52 | 88 | 45 | 79 | 2 | 95 | 60 | 100 | 62 | 88 | 48 | 14 | 78 | 75 | 0.65 | 51 | 60 | 100 | kinase still bound, per cent of control (MTOR (human)): 100%; kinase still bound, per cent of control (MYO3A (human)): 69%; kinase still bound, per cent of control (NTRK3 (human)): 100%; kinase still bound, per cent of control (PIK3CG (human)): 0.75%; kinase still bound, per cent of control (PIP4K2C (human)): 2.8%; kinase still bound, per cent of control (PRKD1 (human)): 66%; kinase still bound, per cent of control (PTK6 (human)): 100%; kinase still bound, per cent of control (RAF1 (human)): 91%; kinase still bound, per cent of control (ROS1 (human)): 17%; kinase still bound, per cent of control (RPS6KA1 KD1 (human)): 31%; kinase still bound, per cent of control (SNRK (human)): 90%; kinase still bound, per cent of control (SRPK3 (human)): 23%; kinase still bound, per cent of control (STK17A (human)): 49%; kinase still bound, per cent of control (STK24 (human)): 70%; kinase still bound, per cent of control (STK38 (human)): 92%; kinase still bound, per cent of control (TAOK3 (human)): 28%; kinase still bound, per cent of control (TNIK (human)): 26%; kinase still bound, per cent of control (TSSK1B (human)): 100%; kinase still bound, per cent of control (ULK1 (human)): 37%; kinase still bound, per cent of control (YES1 (human)): 79%
